Assay: wn = mass fraction of the nth substance listed
Settings: 100 kPa, Liquid, Direct current cell with electrodes

C=CC[P+](c1ccccc1)(c1ccccc1)c1ccccc1.[Br-] [allyltriphenylphosphonium bromide] + OCCOCCOCCO
electrical conductivity [S/m]
Settings	293.15 K	303.15 K	313.15 K	323.15 K	333.15 K	343.15 K
w1 = 0.1375	0.037	0.0441	0.0643	0.0881	0.116	0.149
w1 = 0.2033	0.0477	0.0632	0.0905	0.118	0.155	0.208
w1 = 0.3895	0.067	0.0805	0.112	0.147	0.193	0.244

C=CC[P+](c1ccccc1)(c1ccccc1)c1ccccc1.[Br-] [allyltriphenylphosphonium bromide] + OCCOCCO
electrical conductivity [S/m]
Settings	293.15 K	303.15 K	313.15 K	323.15 K	333.15 K	343.15 K
w1 = 0.1842	0.0997	0.115	0.14	0.175	0.224	0.279
w1 = 0.2653	0.118	0.129	0.159	0.198	0.253	0.315
w1 = 0.4745	0.137	0.148	0.177	0.222	0.274	0.339

— the NIST ThermoML archive (doi:10.1016/j.jct.2017.08.029)
